# Data reported in US9493426B2, “Quinazolinone derivatives useful as FGFR kinase modulators” (priority 2013, dated 2016).
# Molecular target: T1, Ba/F3-FGFR3-transfected cells (Homo sapiens, UniProt P22607, cells depend on it, form not given)
# T1 construct: BAF3-FGFR3 (MIN IL3 pIC50); other: minus IL3; 24 hours, Alamar Blue
# Test: Ba/F3-FGFR3 (minus IL3 or plus IL3) cellular proliferation assay
# Format: cell-based
# Details: 24 hours, Alamar Blue
# Description: Ba/F3-FGFR3 (Minus IL3 or Plus IL3) (Cellular Proliferation Assay)
# (§1) In a 384 well plate, 100 nl of compound dilution in DMSO was sprayed before adding 50 μl cell culture medium (phenol red free RPMI-1640, 10% FBS, 2 mM L-Glutamine and 50 μg/ml Gentamycin) containing 20000 cells per well of Ba/F3-FGFR3-transfected cells. Cells were put in an incubator at 37° C. and 5% CO2. After 24 hours, 10 μl of Alamar Blue solution (0.5 mM K3Fe(CN)6, 0.5 mM K4Fe(CN)6, 0.15 mM Resazurin and 100 mM Phosphate Buffer) was added to the wells, incubated for 4 hours at 37° C. and 5% CO2 before RFU's (Relative Fluorescence Units) (ex. 540 nm., em. 590 nm.) were measured in a fluorescence plate reader.
# (§2) In this assay, the inhibitory effect of different compound concentrations (range 10 μM to 0.1 nM) was determined and used to calculate an IC50 (M) and pIC50 (−log IC50) value. As a counterscreen the same experiment was performed in the presence of 10 ng/ml murine IL3.
# T1 sequence (P22607 whole entry, looked up, change not shown): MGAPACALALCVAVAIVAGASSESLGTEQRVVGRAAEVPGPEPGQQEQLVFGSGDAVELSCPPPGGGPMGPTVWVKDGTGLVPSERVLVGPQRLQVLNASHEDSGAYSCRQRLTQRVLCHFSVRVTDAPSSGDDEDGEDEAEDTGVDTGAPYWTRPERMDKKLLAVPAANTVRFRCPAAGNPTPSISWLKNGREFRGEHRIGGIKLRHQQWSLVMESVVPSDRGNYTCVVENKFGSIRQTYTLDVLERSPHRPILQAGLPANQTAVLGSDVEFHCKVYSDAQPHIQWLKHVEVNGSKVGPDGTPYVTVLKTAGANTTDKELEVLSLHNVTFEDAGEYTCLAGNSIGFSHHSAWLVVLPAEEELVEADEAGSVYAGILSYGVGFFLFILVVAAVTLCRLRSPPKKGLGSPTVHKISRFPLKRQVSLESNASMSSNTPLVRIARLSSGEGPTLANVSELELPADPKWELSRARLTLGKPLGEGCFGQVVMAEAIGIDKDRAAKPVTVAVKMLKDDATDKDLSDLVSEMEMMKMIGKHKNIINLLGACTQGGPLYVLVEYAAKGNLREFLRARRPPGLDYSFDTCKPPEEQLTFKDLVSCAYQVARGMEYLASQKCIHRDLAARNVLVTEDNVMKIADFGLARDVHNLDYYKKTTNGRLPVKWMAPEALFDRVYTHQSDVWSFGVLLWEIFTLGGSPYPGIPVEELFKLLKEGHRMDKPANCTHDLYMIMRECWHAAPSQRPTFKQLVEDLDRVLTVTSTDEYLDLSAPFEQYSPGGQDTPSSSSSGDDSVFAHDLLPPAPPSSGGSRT
row,Compound,BAF3-FGFR3 (MIN IL3 pIC50)
1,COc1cc(OC)c(Cl)c(N(CCO)c2ccc3ncn(-c4cnn(C)c4)c(=O)c3c2)c1Cl [Compound 10],6.3
2,COc1cc(OC)c(Cl)c(N(Cc2ncc[nH]2)c2ccc3ncn(-c4cnn(C)c4)c(=O)c3c2)c1Cl [Compound 13],5.9
3,COc1cc(OC)c(Cl)c(N(CCNC(C)C)c2ccc3ncn(-c4cnn(C)c4)c(=O)c3c2)c1Cl [Compound 11],7.3
4,COc1cc(OC)c(F)c(N(CCO)c2ccc3ncn(-c4ccccc4)c(=O)c3c2)c1F [Compound 1],6.4
5,COc1cc(OC)c(F)c(N(CCO)c2ccc3ncn(-c4cnn(C)c4)c(=O)c3c2)c1 [Compound 16],6.4
6,COc1cccc(C(=O)c2ccc3ncn(-c4cnn(C)c4)c(=O)c3c2)c1 [Compound 23],<5

# Molecular target: T2, Ba/F3-KDR-transfected cells (Homo sapiens, UniProt P35968, cells depend on it, form not given)
# T2 construct: BAF3-KDR (MIN IL3 pIC50); other: minus IL3; 24 hours, Alamar Blue
# Test: Ba/F3-KDR (minus IL3 or plus IL3) cellular proliferation assay
# Format: cell-based
# Details: 24 hours, Alamar Blue
# Description: Ba/F3-KDR (Minus IL3 or Plus IL3) (Cellular Proliferation Assay)
# as §1, with “Ba/F3-KDR-transfected” for “Ba/F3-FGFR3-transfected”
# as §2
# T2 sequence (P35968 whole entry, looked up, change not shown): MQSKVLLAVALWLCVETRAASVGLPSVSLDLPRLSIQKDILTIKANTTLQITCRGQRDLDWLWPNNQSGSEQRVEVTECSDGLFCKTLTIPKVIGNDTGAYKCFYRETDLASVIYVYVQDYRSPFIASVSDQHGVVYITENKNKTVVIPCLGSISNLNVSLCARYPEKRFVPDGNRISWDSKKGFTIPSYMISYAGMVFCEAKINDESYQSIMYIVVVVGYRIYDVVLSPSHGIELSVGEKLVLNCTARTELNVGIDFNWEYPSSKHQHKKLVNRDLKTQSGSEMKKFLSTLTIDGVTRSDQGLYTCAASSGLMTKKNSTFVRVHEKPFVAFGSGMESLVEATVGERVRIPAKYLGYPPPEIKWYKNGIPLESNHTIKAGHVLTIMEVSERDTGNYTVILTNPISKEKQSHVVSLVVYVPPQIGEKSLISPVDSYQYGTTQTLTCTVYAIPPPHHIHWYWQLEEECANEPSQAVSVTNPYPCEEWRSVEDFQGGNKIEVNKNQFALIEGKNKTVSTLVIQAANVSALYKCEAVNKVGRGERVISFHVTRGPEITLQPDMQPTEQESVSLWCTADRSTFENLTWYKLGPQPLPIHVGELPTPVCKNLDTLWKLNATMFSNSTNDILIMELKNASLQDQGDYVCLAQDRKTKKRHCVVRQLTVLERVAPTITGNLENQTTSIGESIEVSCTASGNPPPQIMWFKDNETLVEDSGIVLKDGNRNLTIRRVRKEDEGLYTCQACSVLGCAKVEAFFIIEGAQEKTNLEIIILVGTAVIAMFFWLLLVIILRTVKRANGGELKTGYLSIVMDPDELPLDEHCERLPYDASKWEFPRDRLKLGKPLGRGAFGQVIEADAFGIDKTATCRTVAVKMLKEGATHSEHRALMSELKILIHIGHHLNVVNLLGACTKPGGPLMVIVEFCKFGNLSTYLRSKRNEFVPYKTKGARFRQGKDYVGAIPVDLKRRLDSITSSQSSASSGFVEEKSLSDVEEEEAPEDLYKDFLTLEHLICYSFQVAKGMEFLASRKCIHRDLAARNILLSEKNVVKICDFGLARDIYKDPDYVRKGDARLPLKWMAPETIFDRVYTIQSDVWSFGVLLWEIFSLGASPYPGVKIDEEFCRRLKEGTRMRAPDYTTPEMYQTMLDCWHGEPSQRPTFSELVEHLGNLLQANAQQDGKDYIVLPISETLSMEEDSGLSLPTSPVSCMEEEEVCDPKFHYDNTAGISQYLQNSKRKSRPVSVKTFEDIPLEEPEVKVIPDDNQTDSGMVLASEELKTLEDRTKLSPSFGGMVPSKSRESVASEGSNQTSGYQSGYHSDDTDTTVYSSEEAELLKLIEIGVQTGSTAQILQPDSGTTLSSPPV
row,Compound,BAF3-KDR (MIN IL3 pIC50)
1,COc1cc(OC)c(Cl)c(N(CCO)c2ccc3ncn(-c4cnn(C)c4)c(=O)c3c2)c1Cl [Compound 10],~5
2,COc1cc(OC)c(Cl)c(N(Cc2ncc[nH]2)c2ccc3ncn(-c4cnn(C)c4)c(=O)c3c2)c1Cl [Compound 13],5.1
3,COc1cc(OC)c(Cl)c(N(CCNC(C)C)c2ccc3ncn(-c4cnn(C)c4)c(=O)c3c2)c1Cl [Compound 11],5.4
4,COc1cc(OC)c(F)c(N(CCO)c2ccc3ncn(-c4ccccc4)c(=O)c3c2)c1F [Compound 1],~5
5,COc1cc(OC)c(F)c(N(CCO)c2ccc3ncn(-c4cnn(C)c4)c(=O)c3c2)c1 [Compound 16],5.2
6,COc1cccc(C(=O)c2ccc3ncn(-c4cnn(C)c4)c(=O)c3c2)c1 [Compound 23],<5

# Molecular target: KDR (h) (Homo sapiens, UniProt P35968)
# Test: KDR (VEGFR2) (enzymatic assay), TR-FRET
# Format: biochemical
# Details: 3 μM ATP; pIC50 = -log IC50 (M); read-out: VEGFR KDR pIC50 (converted)
# Description: KDR (VEGFR2) (Enzymatic Assay)
# In a final reaction volume of 30 μL, KDR (h) (150 ng/ml) was incubated with 50 mM HEPES pH 7.5, 6 mM MnCl2, 1 mM DTT, 0.1 mM Na3VO4, 0.01% Triton-X-100, 500 nM Btn-Flt3 and 3 μM ATP in the presence of compound (1% DMSO final). After incubation for 120 minutes at room temperature the reaction was stopped with 2.27 nM EU-anti P-Tyr, 7 mM EDTA, 31.25 nM SA-XL-665 and 0.02% BSA which was present for 60 minutes at room temperature. Time-Resolved Fluorescence Resonance Energy Transfer (TR-FRET) signal (ex340 nm. Em 620 nm, em 655 nm) was measured afterwards and results are expressed in RFU (Relative Fluorescence Units). In this assay, the inhibitory effect of different compound concentrations (range 10 μM to 0.1 nM) was determined and used to calculate an IC50 (M) and pIC50 (−log IC50) value.
row,Compound,IC50
1,COc1cc(OC)c(Cl)c(N(CCO)c2ccc3ncn(-c4cnn(C)c4)c(=O)c3c2)c1Cl [Compound 10],5.01e-07 M
2,COc1cc(OC)c(Cl)c(N(Cc2ncc[nH]2)c2ccc3ncn(-c4cnn(C)c4)c(=O)c3c2)c1Cl [Compound 13],2.51e-07 M
3,COc1cc(OC)c(Cl)c(N(CCNC(C)C)c2ccc3ncn(-c4cnn(C)c4)c(=O)c3c2)c1Cl [Compound 11],5.01e-07 M
4,COc1cc(OC)c(F)c(N(CCO)c2ccc3ncn(-c4ccccc4)c(=O)c3c2)c1F [Compound 1],2.51e-07 M
5,COc1cc(OC)c(F)c(N(CCO)c2ccc3ncn(-c4cnn(C)c4)c(=O)c3c2)c1 [Compound 16],2e-07 M
6,COc1cccc(C(=O)c2ccc3ncn(-c4cnn(C)c4)c(=O)c3c2)c1 [Compound 23],> 1e-06 M

# Molecular target: Ba/F3-FGFR4-transfected cells (Homo sapiens, UniProt P22455, cells depend on it, form not given)
# Test: Ba/F3-FGFR4 cellular proliferation assay
# Format: cell-based
# Details: 24 hours, Alamar Blue
# Description: Ba/F3-FGFR4 (Cellular Proliferation Assay)
# as §1, with “Ba/F3-FGFR4-transfected” for “Ba/F3-FGFR3-transfected”
# In this assay, the inhibitory effect of different compound concentrations (range 10 μM to 0.1 nM) was determined and used to calculate an IC50 (M) and pIC50 (−log IC50) value.
row,Compound,BAF3-FGFR4 (pIC50)
1,COc1cc(OC)c(Cl)c(N(CCO)c2ccc3ncn(-c4cnn(C)c4)c(=O)c3c2)c1Cl [Compound 10],5.1
2,COc1cc(OC)c(Cl)c(N(Cc2ncc[nH]2)c2ccc3ncn(-c4cnn(C)c4)c(=O)c3c2)c1Cl [Compound 13],5.2
3,COc1cc(OC)c(Cl)c(N(CCNC(C)C)c2ccc3ncn(-c4cnn(C)c4)c(=O)c3c2)c1Cl [Compound 11],6.3
4,COc1cc(OC)c(F)c(N(CCO)c2ccc3ncn(-c4ccccc4)c(=O)c3c2)c1F [Compound 1],5.6
5,COc1cc(OC)c(F)c(N(CCO)c2ccc3ncn(-c4cnn(C)c4)c(=O)c3c2)c1 [Compound 16],5.7
6,COc1cccc(C(=O)c2ccc3ncn(-c4cnn(C)c4)c(=O)c3c2)c1 [Compound 23],<5

# Test system: not given
# Test: not given
# Details: not given
row,Compound,melting point
1,COc1cc(OC)c(Cl)c(N(CCO)c2ccc3ncn(-c4cnn(C)c4)c(=O)c3c2)c1Cl [Compound 10],223 °C
2,COc1cc(OC)c(Cl)c(N(CCNC(C)C)c2ccc3ncn(-c4cnn(C)c4)c(=O)c3c2)c1Cl [Compound 11],195 °C
3,COc1cc(OC)c(F)c(N(CCO)c2ccc3ncn(-c4ccccc4)c(=O)c3c2)c1F [Compound 1],169 °C
4,COc1cc(OC)c(F)c(N(CCO)c2ccc3ncn(-c4cnn(C)c4)c(=O)c3c2)c1 [Compound 16],164 °C

# Molecular target: FGFR4 (h) (Homo sapiens, UniProt P22455)
# Test: FGFR4 (enzymatic assay), TR-FRET
# Format: biochemical
# Details: 5 μM ATP; pIC50 = -log IC50 (M); read-out: FGFR 4 pIC50 (converted)
row,Compound,IC50
1,COc1cc(OC)c(Cl)c(N(CCO)c2ccc3ncn(-c4cnn(C)c4)c(=O)c3c2)c1Cl [Compound 10],2e-07 M
2,COc1cc(OC)c(Cl)c(N(Cc2ncc[nH]2)c2ccc3ncn(-c4cnn(C)c4)c(=O)c3c2)c1Cl [Compound 13],1.26e-07 M
3,COc1cc(OC)c(Cl)c(N(CCNC(C)C)c2ccc3ncn(-c4cnn(C)c4)c(=O)c3c2)c1Cl [Compound 11],1.58e-07 M
4,COc1cc(OC)c(F)c(N(CCO)c2ccc3ncn(-c4ccccc4)c(=O)c3c2)c1F [Compound 1],3.98e-08 M
5,COc1cc(OC)c(F)c(N(CCO)c2ccc3ncn(-c4cnn(C)c4)c(=O)c3c2)c1 [Compound 16],2.51e-08 M
6,COc1cccc(C(=O)c2ccc3ncn(-c4cnn(C)c4)c(=O)c3c2)c1 [Compound 23],> 1e-06 M

# Molecular target: FGFR2 (h) (Homo sapiens, UniProt P21802)
# Test: FGFR2 (enzymatic assay), TR-FRET
# Format: biochemical
# Details: not given
# Chain of FGFR2 (h) (P21802 22-821): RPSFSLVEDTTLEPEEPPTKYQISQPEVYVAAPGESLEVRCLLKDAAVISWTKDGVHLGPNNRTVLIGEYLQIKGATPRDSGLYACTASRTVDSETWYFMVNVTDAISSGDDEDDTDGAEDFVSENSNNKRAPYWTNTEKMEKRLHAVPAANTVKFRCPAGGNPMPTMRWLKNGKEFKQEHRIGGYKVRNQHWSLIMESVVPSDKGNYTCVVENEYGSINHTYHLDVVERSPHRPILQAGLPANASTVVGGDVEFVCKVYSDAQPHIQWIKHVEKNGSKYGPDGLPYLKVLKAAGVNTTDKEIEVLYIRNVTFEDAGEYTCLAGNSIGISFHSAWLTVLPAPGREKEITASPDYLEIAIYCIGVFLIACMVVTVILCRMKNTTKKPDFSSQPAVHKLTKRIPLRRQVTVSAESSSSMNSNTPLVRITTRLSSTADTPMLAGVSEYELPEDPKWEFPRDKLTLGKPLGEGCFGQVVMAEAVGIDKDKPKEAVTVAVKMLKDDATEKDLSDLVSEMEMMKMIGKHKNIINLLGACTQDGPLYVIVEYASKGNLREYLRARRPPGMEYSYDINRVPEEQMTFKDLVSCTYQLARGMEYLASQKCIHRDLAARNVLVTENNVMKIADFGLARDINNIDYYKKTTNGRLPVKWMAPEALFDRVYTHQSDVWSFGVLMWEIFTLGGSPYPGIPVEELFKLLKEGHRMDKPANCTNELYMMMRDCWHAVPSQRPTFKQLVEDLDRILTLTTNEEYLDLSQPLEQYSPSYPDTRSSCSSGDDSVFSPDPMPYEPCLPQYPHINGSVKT
row,Compound,IC50
1,COc1cc(OC)c(Cl)c(N(Cc2ncc[nH]2)c2ccc3ncn(-c4cnn(C)c4)c(=O)c3c2)c1Cl [Compound 13],1.58e-08 M

# Same assay, conditions: 0.4 μM ATP; pIC50 = -log IC50 (M); read-out: FGFR 2 pIC50 (converted)
row,Compound,IC50
1,COc1cc(OC)c(Cl)c(N(CCO)c2ccc3ncn(-c4cnn(C)c4)c(=O)c3c2)c1Cl [Compound 10],1.58e-08 M
2,COc1cc(OC)c(Cl)c(N(CCNC(C)C)c2ccc3ncn(-c4cnn(C)c4)c(=O)c3c2)c1Cl [Compound 11],6.31e-08 M
3,COc1cc(OC)c(F)c(N(CCO)c2ccc3ncn(-c4ccccc4)c(=O)c3c2)c1F [Compound 1],6.31e-09 M
4,COc1cc(OC)c(F)c(N(CCO)c2ccc3ncn(-c4cnn(C)c4)c(=O)c3c2)c1 [Compound 16],5.01e-09 M
5,COc1cccc(C(=O)c2ccc3ncn(-c4cnn(C)c4)c(=O)c3c2)c1 [Compound 23],> 1e-06 M

# Molecular target: FGFR1 (h) (Homo sapiens, UniProt P11362)
# Test: FGFR1 (enzymatic assay), TR-FRET
# Format: biochemical
# Details: not given
# Chain of FGFR1 (h) (P11362 22-822): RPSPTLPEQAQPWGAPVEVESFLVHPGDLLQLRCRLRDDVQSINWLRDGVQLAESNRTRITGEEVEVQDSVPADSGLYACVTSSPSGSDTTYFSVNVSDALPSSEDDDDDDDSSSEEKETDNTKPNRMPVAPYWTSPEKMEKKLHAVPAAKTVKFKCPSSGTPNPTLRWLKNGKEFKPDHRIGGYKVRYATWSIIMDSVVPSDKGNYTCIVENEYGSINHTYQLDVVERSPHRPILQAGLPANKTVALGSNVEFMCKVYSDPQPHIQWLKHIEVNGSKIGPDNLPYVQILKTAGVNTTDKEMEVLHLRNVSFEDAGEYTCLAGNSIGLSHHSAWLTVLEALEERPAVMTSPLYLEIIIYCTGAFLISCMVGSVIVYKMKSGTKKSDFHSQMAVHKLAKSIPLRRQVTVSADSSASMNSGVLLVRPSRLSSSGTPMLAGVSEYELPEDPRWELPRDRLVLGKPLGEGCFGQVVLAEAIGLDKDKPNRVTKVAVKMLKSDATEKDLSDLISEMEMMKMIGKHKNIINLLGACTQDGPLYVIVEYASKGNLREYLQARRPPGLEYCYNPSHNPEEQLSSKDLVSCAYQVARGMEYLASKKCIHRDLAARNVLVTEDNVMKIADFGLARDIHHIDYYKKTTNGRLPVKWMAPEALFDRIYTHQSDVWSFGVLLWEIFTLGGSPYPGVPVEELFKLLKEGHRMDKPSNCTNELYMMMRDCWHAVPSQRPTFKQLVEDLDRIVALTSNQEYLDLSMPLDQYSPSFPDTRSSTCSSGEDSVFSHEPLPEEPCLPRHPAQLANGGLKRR
row,Compound,IC50
1,COc1cc(OC)c(Cl)c(N(CCO)c2ccc3ncn(-c4cnn(C)c4)c(=O)c3c2)c1Cl [Compound 10],12.6 nM
2,COc1cc(OC)c(Cl)c(N(Cc2ncc[nH]2)c2ccc3ncn(-c4cnn(C)c4)c(=O)c3c2)c1Cl [Compound 13],15.8 nM
3,COc1cc(OC)c(Cl)c(N(CCNC(C)C)c2ccc3ncn(-c4cnn(C)c4)c(=O)c3c2)c1Cl [Compound 11],12.6 nM
4,COc1cc(OC)c(F)c(N(CCO)c2ccc3ncn(-c4ccccc4)c(=O)c3c2)c1F [Compound 1],10 nM
5,COc1cc(OC)c(F)c(N(CCO)c2ccc3ncn(-c4cnn(C)c4)c(=O)c3c2)c1 [Compound 16],12.6 nM
6,COc1cccc(C(=O)c2ccc3ncn(-c4cnn(C)c4)c(=O)c3c2)c1 [Compound 23],> 1000 nM

# Molecular target: T3, Ba/F3-FGFR1-transfected cells (Homo sapiens, UniProt P11362)
# T3 construct: other: minus IL3; 24 hours, Alamar Blue
# Test: Ba/F3-FGFR1 (minus IL3 or plus IL3) cellular proliferation assay
# Format: cell-based
# Details: 24 hours, Alamar Blue
# Description: Ba/F3-FGFR1 (Minus IL3 or Plus IL3) (Cellular Proliferation Assay)
# as §1, with “Ba/F3-FGFR1-transfected” for “Ba/F3-FGFR3-transfected”
# as §2
# T3 sequence (P11362 whole entry, change not shown): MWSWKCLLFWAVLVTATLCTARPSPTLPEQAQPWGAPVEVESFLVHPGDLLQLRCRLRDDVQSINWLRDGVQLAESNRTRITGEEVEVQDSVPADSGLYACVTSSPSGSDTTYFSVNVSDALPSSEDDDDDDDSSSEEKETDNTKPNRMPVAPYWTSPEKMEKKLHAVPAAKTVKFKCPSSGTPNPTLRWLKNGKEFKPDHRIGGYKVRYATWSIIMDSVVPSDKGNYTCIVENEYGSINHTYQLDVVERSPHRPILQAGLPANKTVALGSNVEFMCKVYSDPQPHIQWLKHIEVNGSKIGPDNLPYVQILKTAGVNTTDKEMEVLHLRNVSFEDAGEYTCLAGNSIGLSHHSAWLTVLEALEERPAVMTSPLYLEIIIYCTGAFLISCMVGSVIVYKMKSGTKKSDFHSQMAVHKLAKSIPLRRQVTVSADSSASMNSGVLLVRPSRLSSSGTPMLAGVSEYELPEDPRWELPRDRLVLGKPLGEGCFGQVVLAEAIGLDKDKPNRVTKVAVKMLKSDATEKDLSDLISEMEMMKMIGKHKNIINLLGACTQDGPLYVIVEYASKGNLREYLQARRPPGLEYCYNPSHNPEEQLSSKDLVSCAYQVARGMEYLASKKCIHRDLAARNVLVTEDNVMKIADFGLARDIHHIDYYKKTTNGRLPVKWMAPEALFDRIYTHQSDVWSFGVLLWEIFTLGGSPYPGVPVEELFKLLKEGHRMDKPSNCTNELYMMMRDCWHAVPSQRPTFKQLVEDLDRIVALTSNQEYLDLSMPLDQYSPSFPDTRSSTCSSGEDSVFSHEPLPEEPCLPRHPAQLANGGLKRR
row,Compound,BAF3-FGFR1 (MIN IL3 pIC50)
1,COc1cc(OC)c(Cl)c(N(CCO)c2ccc3ncn(-c4cnn(C)c4)c(=O)c3c2)c1Cl [Compound 10],6.2
2,COc1cc(OC)c(Cl)c(N(Cc2ncc[nH]2)c2ccc3ncn(-c4cnn(C)c4)c(=O)c3c2)c1Cl [Compound 13],5.5
3,COc1cc(OC)c(Cl)c(N(CCNC(C)C)c2ccc3ncn(-c4cnn(C)c4)c(=O)c3c2)c1Cl [Compound 11],7.4
4,COc1cc(OC)c(F)c(N(CCO)c2ccc3ncn(-c4ccccc4)c(=O)c3c2)c1F [Compound 1],6.0
5,COc1cc(OC)c(F)c(N(CCO)c2ccc3ncn(-c4cnn(C)c4)c(=O)c3c2)c1 [Compound 16],6.3
6,COc1cccc(C(=O)c2ccc3ncn(-c4cnn(C)c4)c(=O)c3c2)c1 [Compound 23],<5

# Molecular target: FGFR3 (h) (Homo sapiens, UniProt P22607)
# Test: FGFR3 (enzymatic assay), TR-FRET
# Format: biochemical
# Details: 25 μM ATP; pIC50 = -log IC50 (M); read-out: FGFR3 pIC50 (converted)
row,Compound,IC50
1,COc1cc(OC)c(Cl)c(N(CCO)c2ccc3ncn(-c4cnn(C)c4)c(=O)c3c2)c1Cl [Compound 10],7.94e-09 M
2,COc1cc(OC)c(Cl)c(N(Cc2ncc[nH]2)c2ccc3ncn(-c4cnn(C)c4)c(=O)c3c2)c1Cl [Compound 13],1.26e-08 M
3,COc1cc(OC)c(Cl)c(N(CCNC(C)C)c2ccc3ncn(-c4cnn(C)c4)c(=O)c3c2)c1Cl [Compound 11],3.98e-08 M
4,COc1cc(OC)c(F)c(N(CCO)c2ccc3ncn(-c4ccccc4)c(=O)c3c2)c1F [Compound 1],6.31e-09 M
5,COc1cc(OC)c(F)c(N(CCO)c2ccc3ncn(-c4cnn(C)c4)c(=O)c3c2)c1 [Compound 16],2.51e-09 M
6,COc1cccc(C(=O)c2ccc3ncn(-c4cnn(C)c4)c(=O)c3c2)c1 [Compound 23],> 1e-06 M
